The values that follow come from US6583179B2, “Substituted aminoalkylamide derivatives as antagonists of follicle stimulating hormone” (Ortho-McNeil Pharmaceutical, Inc., priority 1999, dated 2003).

In one assay the test system is Rat Granulosa Cell. Kind of assay: Rat granulosa cell FSH-stimulated cAMP production. The assay is classed as cell-based. The settings on record: inhibition of cAMP produced by EC70 dose of FSH (1.4 nM), maximum concentration 50 μM. As for the experimental part:
Insulin, diethylstilbesterol, androstenedione, forskolin and DMSO were purchased from Sigma (St. Louis, Mo.). Fungizone, penicillin/streptomycin, charcoal-treated heat inactivated fetal bovine serum (CT-HI-FBS) and Dulbecco's Modified Eagle Medium:Hams F12 medium containing 15 mM Hepes and L-glutamine (DMEM:F12), were purchased from GIBCO BRL (Grand Island, N.Y.).
Ovine FSH (NIADDK-oFSH-17; FSH potency=20 NIH-FSH-S1 U/mg; LH contamination=0.04 times NIH-LH-S1) was received from Ogden Bioservices Corporation, Rockville, Md. Human FSH (Fertinex), was purchased from Serono Pharmaceutical (Framingham, Mass.). Human chorionic gonadotropin (hCG) was purchased from Sigma (St Louis, Mo.).
Immature intact female rats (Wistar-derived strain; 21-23 days old) were implanted with a single pellet (Innovative Research of America, Sarasota, Fla.) containing 2.5 mg diethylstilbesterol (DES) for 3 days. On the third day, the animals were sacrificed, the ovaries were removed, and the granulosa cells were isolated essentially as described in Haynes-Johnson et al., Biol. Reprod., 61 (1), 147-153, (1999). Granulosa cells were plated at a density of 300,000 cells per ml with 0.2 ml added to each well of 96 well culture dishes (Corning, N.Y.). Cultures were incubated at 37° C. in a humidified incubator (95% air, 5% CO2) overnight (18 hours).
Androstenedione (100,000X) was prepared by dissolving the steroid in 100% ethanol, and was subsequently diluted to a final concentration of 10^−7M containing 0.1% ethanol in assay media. The assay media was serum-free, DES-free, insulin-free media, prepared by adding 5 mL pen-strep,1.5 mL fungizone and 5 μL androstenedione to 493.5 mL DMEM F-12 media.
(§1) Test compounds were solubilized in 30% dimethyl sulfoxide (DMSO) at a concentration of 10 mM before diluting to appropriate concentrations in assay medium. The final DMSO concentration in the treated cells and in the control cells was 0.75%.
Test plates containing the granulosa cells were preincubated for 18 hours at 37° C. with 95% air, 5% CO2, 100% humidity. The spent media was removed and 50 μl assay media (DMEM:F12) containing 2 mM IBMX (3-isobutyl-1-methyl-xanthine) was added to the cells. Compounds (25 μl) in the appropriate concentration were added followed 5 minutes later by an EC70 dose of FSH (25 μl; 50 ng/ml; 1.4 nM). After 30 minutes @ 22.5° C. (room temperature) the reaction was terminated by addition of 25 μL 0.5 N hydrochloric acid to each well. The amount of cAMP produced was measured by radioimmunoassay in a FlashPlate (DuPont, Boston, Mass.). To each flash plate 60 μL flash plate buffer was added followed by 40 μL acidified cell sample or cAMP standard, followed with the addition of 100 μl ^125l-cAMP trace. The FlashPlates were sealed, incubated overnight @ room temperature, and counted in a Packard TopCount (Packard Instrument Co., Meriden, Conn.). The cAMP radioimmunoassay results were calculated using DPM conversion and log-logit transformation of % binding (Excel program).

Another assay concerns the target T1, human FSH receptor (Homo sapiens, UniProt P23945).
T1 construct: expressed in transfected cells; host or cells: Chinese Hamster Ovary cells (K-1; ATCC), line rhFSHR-cLUC
T1 sequence (P23945 18-695): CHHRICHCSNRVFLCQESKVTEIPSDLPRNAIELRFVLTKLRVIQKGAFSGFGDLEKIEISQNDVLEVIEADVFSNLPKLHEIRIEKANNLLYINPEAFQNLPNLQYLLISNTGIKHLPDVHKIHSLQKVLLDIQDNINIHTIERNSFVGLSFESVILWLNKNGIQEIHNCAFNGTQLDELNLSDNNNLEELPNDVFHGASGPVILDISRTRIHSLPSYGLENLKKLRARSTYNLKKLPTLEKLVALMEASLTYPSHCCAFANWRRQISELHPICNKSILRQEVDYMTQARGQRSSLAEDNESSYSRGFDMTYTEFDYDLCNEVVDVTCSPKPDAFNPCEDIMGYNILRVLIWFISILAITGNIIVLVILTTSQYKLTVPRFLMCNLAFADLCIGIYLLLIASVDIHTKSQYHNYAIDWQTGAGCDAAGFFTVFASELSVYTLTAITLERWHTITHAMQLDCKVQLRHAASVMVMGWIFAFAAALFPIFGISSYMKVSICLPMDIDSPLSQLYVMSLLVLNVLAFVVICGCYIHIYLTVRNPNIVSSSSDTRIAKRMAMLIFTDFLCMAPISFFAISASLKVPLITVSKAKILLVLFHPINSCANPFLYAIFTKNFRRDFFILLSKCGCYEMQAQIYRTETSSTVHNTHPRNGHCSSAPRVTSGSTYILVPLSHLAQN
As to the kind of experiment: hFSHR CHO cAMP assay (rhFSHR-cLUC cells, FSH-stimulated cAMP, radioimmunoassay). It counts as cell-based. The note with it: inhibition of cAMP produced by EC70 dose of FSH (4.85 nM); maximum concentration 50 μM.
Excerpt: Minimum Essential Medium-Alpha (MEM-alpha), fetal bovine serum (FBS), penicillin, streptomycin, geneticin, trypsin-EDTA, Hanks' Balanced Salt Solution (no Calcium chloride, Magnesium chloride, Magnesium sulfate, or phenol red; Ca-Mg free HBSS) were purchased from Gibco BRL (Gaithersburg, Md.). The cells used for the FSH bioassay (rhFSHR-cLUC) were Chinese Hamster Ovary cells (K-1; ATCC) stably transformed with human FSH receptor (pSVK-FSHr) and a cAMP luciferase reporter gene (responsive CGα-180LUC). Follicle Stimulating Hormone (Metrodin; Fertinex) was purchased from Serono, Ltd. (Norwell, Mass.).
The rhFSHR-cLUC cell cultures were maintained in MEM-Alpha supplemented with 10% heat-inactivated FBS (HIFBS), 100 U/ml penicillin, 100 μg/mL streptomycin, and included 0.1 g/L geneticin for stable cell selection.
Forty-eight hours after the cells were plated in sterile 96-well culture plates (Corning, Corning, N.Y.) the spent media was removed and 50 μl assay media (modified growth media with 2% HIFBS) containing 2 mM IBMX (3-isobutyl-1-methyl-xanthine) was added to the cells. Compounds (25 μl) in the appropriate concentration were added followed 5 minutes later by an EC70 dose of FSH (25 μl; 160 ng/ml; 4.85 nM). After 10 minutes @ 22.5° C. (room temperature) the reaction was terminated by addition of 25 μL 0.5 N hydrochloric acid to each well. The amount of cAMP produced was measured by radioimmunoassay in a FlashPlate (DuPont, Boston, Mass.). To each flash plate 60 μL flash plate buffer was added followed by 40 μL acidified cell sample or cAMP standard, followed with the addition of 100 μl ^125l-cAMP trace. The FlashPlates were sealed, incubated overnight @ room temperature, and counted in a Packard TopCount (Packard Instrument Co., Meriden, Conn.). The cAMP radioimmunoassay results were calculated using DPM conversion and log-logit transformation of % binding (Excel program).
as §1
For individual experiments, a set of samples were tested including a vehicle control (assay buffer), a reference compound (hFSH) at a range of concentrations designed to elicit a minimal to maximal response, and several concentrations of test compounds together with an EC70 concentration of standard (hFSH challenge). Each compound was performed in duplicates for the primary evaluation and quadruplicates for the dose-ranging experiments. The cAMP radioimmunoassay raw data (pmol) were calculated to provide average pmol cAMP produced/ml and the percent inhibition was calculated as shown below.
% Inh=[1−(Avg.pmoltest compound+standard)/(Avg.pmolstandard)]×100
EC50 values were calculated from an analysis of the concentration-inhibition data using a linear analysis of the data transformed to a log-logit format.

Consider `COc1ccccc1CCN(CC(=O)NCc1ccc(CN)cc1)S(=O)(=O)c1ccc(-c2cccc(F)c2)cc1` [Compound 14], for which the EC50 was found to be 1560 nM in the assay with Rat Granulosa Cell and 740 nM at human FSH receptor.
For `COc1ccccc1CCN(CC(=O)NCc1ccc(CN)cc1)S(=O)(=O)c1ccc(Cl)s1` [Compound 114] the same measures were 8970 nM and 9780 nM.
`COc1ccccc1CCN(CC(=O)NCc1ccc(CN)cc1)S(=O)(=O)c1ccc(-c2ccccc2C)s1` [Compound 272]: the results for the EC50 with Rat Granulosa Cell and at human FSH receptor were 600 nM and 550 nM, respectively.
For `COc1ccccc1CN(CC(=O)NCC1CCC(CN)CC1)S(=O)(=O)c1ccc(-c2cnc(SC)nc2)s1` (stereo not shown) [Compound 73] the same measures were 1450 nM and 4950 nM.
For `COc1cccc(CN(CC(=O)NCC2CCC(CN)CC2)S(=O)(=O)c2ccc(-c3cccc(OC)c3)cc2)c1` (stereo not shown) [Compound 24], the results for the EC50 in the assay with Rat Granulosa Cell and at human FSH receptor were 1070 nM and 2330 nM, respectively.
On the same counts, the results for `Cc1ccccc1-c1ccc(S(=O)(=O)N(CC(=O)NCC2CCCC(CN)C2)C[C@H](C)c2ccccc2)cc1` (stereo partly shown) [Compound 384] are 80 nM and 270 nM.
On the same counts, the results for `COc1ccccc1CCN(CC(=O)NCC1CCC(CN)CC1)S(=O)(=O)c1ccc(-c2ccccc2Cl)cc1` (stereo not shown) [Compound 31] are 1970 nM and 910 nM.
On the same counts, the results for `C[C@@H](CN(CC(=O)NCc1ccc(CN)cc1)S(=O)(=O)c1ccc(-c2cccc(F)c2)cc1)c1ccccc1` [Compound 203] are 60 nM and 80 nM.
Take `C[C@H](CN(CC(=O)NCc1ccc(CN)cc1)S(=O)(=O)c1ccc(-c2ccccc2Cl)cc1)c1ccccc1` [Compound 208]: the EC50 in the assay on Rat Granulosa Cell is 40 nM; at human FSH receptor, 60 nM.
For `COc1ccccc1CCN(CC(=O)NCC1CCC(CN)CC1)S(=O)(=O)c1ccc(-c2ccccc2OC)cc1` (stereo not shown) [Compound 33] the same measures were 180 nM and 420 nM.
On the same counts, the results for `COc1ccccc1CCN(CC(=O)NCC1CCC(CN)CC1)S(=O)(=O)c1ccc(-c2cccc(C(F)(F)F)c2)cc1` (stereo not shown) [Compound 29] are 2060 nM and 3090 nM.
For `COc1ccccc1CCN(CC(=O)NC1CCC(N)CC1)S(=O)(=O)c1ccc(-c2ccccc2C)cc1` (stereo not shown) [Compound 94] the same measures were 8910 nM and 34500 nM.
Turning to `COc1ccccc1CCN(CC(=O)NCC1CCC(CN)CC1)S(=O)(=O)c1ccc(-c2ccccc2C)cc1` (stereo not shown) [Compound 32], the EC50 was 160 nM with Rat Granulosa Cell and 310 nM on human FSH receptor.
For `COc1cccc(-c2ccc(S(=O)(=O)N(CCc3ccccc3OC)CC(=O)NCc3ccc(CN)cc3)cc2)c1` [Compound 16] the same measures were 510 nM and 1130 nM.
